Key:
[1] = biological target: T1, GST-ΔPH-Akt1 (Homo sapiens, UniProt P31749); test: Biochemical ΔPH Akt1 assay (flashplate, 33P incorporation into histone 2B); conditions: 100 nM ATP, histone 2B substrate; read-out: ΔPHAkt1 inhibition: IC50
T1 construct: named GST-deltaPH-Akt1; 107-480aa; cloned in the pAcGl vector; GST (N); made in house; host or cells: SF9 insect cells (baculovirus vector pAcG1), co-expressed with PDK1
Method in brief: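 The enzyme was GST-fused human Akt1 lacking the PH domain (aa 107–480), co-expressed with PDK1 in Sf9 cells, at 100 ng/well, with 100 ng/well histone 2B substrate and 100 nM ATP including 33P-ATP. 33P incorporation was counted on scintillant-coated flashplates.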

[2] = biological target: T2, PKA (Homo sapiens, UniProt P17612); test: Biochemical PKA assay (flashplate); conditions: 100 nM ATP; read-out: PKA inhibition: −log IC50 (converted)
T2 construct: His; purchased PanVera, USA #R3791; host or cells: E. coli
Method in brief: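 His-tagged human recombinant PKA catalytic subunit (E. coli), 1 ng/well, with 0.5 μM PKA peptide and 100 nM ATP including ^33P-ATP. Buffer […] pH7,5, 3 mM MgCl2, 3 mM MnCl2, Na-orthovanadate, 1 mM DTT; 80 min at 22° C. Stopped with H3PO4, scintillation flashplate counting, IC50 derived.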

T1 sequence (P31749 107-480, stated change not applied): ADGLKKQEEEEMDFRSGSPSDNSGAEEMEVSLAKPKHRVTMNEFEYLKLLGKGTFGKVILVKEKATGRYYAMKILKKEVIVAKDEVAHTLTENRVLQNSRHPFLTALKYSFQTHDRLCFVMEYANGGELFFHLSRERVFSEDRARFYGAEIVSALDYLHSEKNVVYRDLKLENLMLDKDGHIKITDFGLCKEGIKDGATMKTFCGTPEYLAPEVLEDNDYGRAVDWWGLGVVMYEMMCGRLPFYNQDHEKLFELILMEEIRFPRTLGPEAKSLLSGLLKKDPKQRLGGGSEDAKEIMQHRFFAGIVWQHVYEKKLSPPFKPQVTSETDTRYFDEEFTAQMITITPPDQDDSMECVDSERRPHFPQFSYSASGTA

Row | IC50 [1] [µM] | IC50 [2] [µM] | Compound
1 | ≤ 1.75 |  | COc1cccc(-c2ccc(-c3cc4c(Br)cnn4c(Nc4ccc(NC(=O)c5ccc(CN)cc5)cc4)n3)cc2)c1 [Example 87, 4-Aminomethyl-N-{4-[3-bromo-5-(3′-methoxy-biphenyl-4-yl)-pyrazolo[1,5-c]pyrimidin-7-ylamino]-phenyl}-benzamide]
2 | ≤ 1.75 | 6.31 to 100 | O=C(Nc1cccc(Nc2nc(-c3cccc4c3oc3ccccc34)cc3ccnn23)c1)c1ccc2c(c1)CCNC2 [Example 63, 1,2,3,4-Tetrahydro-isoquinoline-6-carboxylic acid [3-(5-dibenzofuran-4-yl-pyrazolo[1,5-c]pyrimidin-7-ylamino)-phenyl]-amide]
3 | ≤ 1.75 | 6.31 to 100 | COc1cccc(-c2ccc(-c3cc4ccnn4c(Nc4ccc(NC(=O)c5ccc(CN)cc5)cc4)n3)cc2)c1 [Example 59, 4-Aminomethyl-N-{4-[5-(3′-methoxy-biphenyl-4-yl)-pyrazolo[1,5-c]pyrimidin-7-ylamino]-phenyl}-benzamide]
4 | ≤ 1.75 |  | NCCCC(=O)Nc1ccc(Nc2nc(-c3cccc4c3oc3ccccc34)cc3ccnn23)cc1 [Example 24, 4-Amino-N-[4-(5-dibenzofuran-4-yl-pyrazolo[1,5-c]pyrimidin-7-ylamino)-phenyl]-butyramide]
